Measurements as given in US12516064B2, “Tetrahydropyridopyrimidines and related analogs for inhibiting YAP/TAZ-TEAD” (THE KATHOLIEKE UNIVERSITEIT LEUVEN, priority 2022, dated 2026).

Columns and labels:
Type in all cases: cell-based
[1] = test system: YAP/TAZ-TEAD transcription; test: Reporter gene assay for measuring the inhibition of YAP/TAZ-TEAD transcription; conditions: Homo sapiens, HEK-293T; Hek293T cells transiently transfected with TEAD-responsive element luciferase reporter; 24 hours incubation
In short: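 HEK293T cells transiently transfected with a TEAD-responsive luciferase reporter, plated onto pre-diluted compounds and incubated 24 h at 37 °C/5% CO2. Luminescence read after SteadyLite substrate; percent inhibition scaled between vehicle (0%) and positive control inhibitor (100%), giving IC50/EC50.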

NCI-H226 = test: Mesothelioma cell line proliferation assay (NCI-H226); conditions: Homo sapiens, 144 h; NCI-H226 cells; 6 days with compound; cell viability by ATPlite
Description: (§1) Mesothelioma cell lines, NCI-H226 and NCI-H2052 (all sourced from the ATCC cell culture collection) are plated in 96-well plates (Corning® 96 Well White Polystyrene Microplate clear flat bottom, white polystyrene (TC-Treated)), at 1500 cells/well in full medium (RPMI 1640 ATCC modification with L-glutamine, HEPES, Phenol Red, Sodium Pyruvate, High glucose, Low sodium bicarbonate and 10% fetal bovine serum). Cells are incubated overnight at 37° C. in an incubator with 5% CO2. Then compounds, dissolved in DMSO, are added in dose-response. Cells are incubated with compound dilutions for another 6 days at 37° C. in an incubator with 5% CO2. Cell viability is quantitated using the ATPlite kit (Perkin-Elmer) and the luminescence is read-out using an Envision instrument (Perkin-Elmer). The amount of relative light units produced using the ATPlite kit is used to calculated percent of inhibition.
(§2) The activities of some example compounds are depicted in Table 9. The activity ranges A, B and C refer to EC50 values in the mesothelioma cell line proliferation assay as described as follows: “A”: EC50<1 μM; “B”: 1 μM≤EC50≤10 μM and “C”: EC50>10 μM; NT: not tested.

NCI-H2052 = test: Mesothelioma cell line proliferation assay (NCI-H2052); conditions: Homo sapiens, 144 h; NCI-H2052 cells; 6 days with compound; cell viability by ATPlite
Description: as §1, §2

| EC50 [1] [nM] | EC50 (NCI-H226) [nM] | EC50 (NCI-H2052) [nM] | Structure (SMILES) |
| --- | --- | --- | --- |
| < 1000 | < 1000 | 1000 to 10000 | C=CC(=O)N1CCc2c(nc(-c3ccccc3)nc2-c2ccn(C)n2)C1 [Cpd. No. 39, 1-(4-(1-methyl-1H-pyrazol-3-yl)-2-phenyl-5,8-dihydropyrido[3,4-d]pyrimidin-7(6H)-yl)prop-2-en-1-one] |
| < 1000 | < 1000 | < 1000 | CC#CC(=O)N1CCc2c(nc(-c3ccc(C(F)(F)F)cc3)nc2-c2ccn(C)n2)C1 [Cpd. No. 86, 1-(4-(1-methyl-1H-pyrazol-3-yl)-2-(4-(trifluoromethyl)phenyl)-5,8-dihydropyrido[3,4-d]pyrimidin-7(6H)-yl)but-2-yn-1-one] |
| < 1000 | < 1000 | 1000 to 10000 | C=CC(=O)N1CCc2c(nc(-c3ccc(C(F)(F)F)cc3)nc2-c2ccn(C)n2)C1 [Cpd. No. 54, 1-(4-(1-methyl-1H-pyrazol-3-yl)-2-(4-(trifluoromethyl)phenyl)-5,8-dihydropyrido[3,4-d]pyrimidin-7(6H)-yl)prop-2-en-1-one] |
| < 1000 | < 1000 | 1000 to 10000 | Cn1ccc(-c2nc(-c3ccc(C(F)(F)F)cc3)nc3c2CCN(C(=O)C2CO2)C3)n1 (stereo not drawn) [Cpd. No. 88, (4-(1-methyl-1H-pyrazol-3-yl)-2-(4-(trifluoromethyl)phenyl)-5,8-dihydropyrido[3,4-d]pyrimidin-7(6H)-yl)(oxiran-2-yl)methanone] |
| < 1000 | < 1000 | 1000 to 10000 | C=CC(=O)N1CCc2c(nc(-c3ccc(C(F)(F)F)cc3)nc2-c2cnn(C)n2)C1 [Cpd. No. 92, 1-(4-(2-methyl-2H-1,2,3-triazol-4-yl)-2-(4-(trifluoromethyl)phenyl)-5,8-dihydropyrido[3,4-d]pyrimidin-7(6H)-yl)prop-2-en-1-one] |
| < 1000 | < 1000 | 1000 to 10000 | C=CC(=O)N1CCc2c(nc(Cc3cccc(F)c3)nc2-c2ccn(C)n2)C1 [Cpd. No. 43, 1-(2-(3-fluorobenzyl)-4-(1-methyl-1H-pyrazol-3-yl)-5,8-dihydropyrido[3,4-d]pyrimidin-7(6H)-yl)prop-2-en-1-one] |
| < 1000 | < 1000 | > 10000 | CC#CC(=O)N1CCc2c(nc(C3CCC(F)(F)CC3)nc2-c2ccn(C)n2)C1 [Cpd. No. 94, 1-(2-(4,4-difluorocyclohexyl)-4-(1-methyl-1H-pyrazol-3-yl)-5,8-dihydropyrido[3,4-d]pyrimidin-7(6H)-yl)but-2-yn-1-one] |
| < 1000 | < 1000 | 1000 to 10000 | C=CC(=O)N1CCc2c(nc(-c3ccc(C(F)(F)F)cc3)nc2-c2ccn(C(F)F)n2)C1 [Cpd. No. 69, 1-(4-(1-(difluoromethyl)-1H-pyrazol-3-yl)-2-(4-(trifluoromethyl)phenyl)-5,8-dihydropyrido[3,4-d]pyrimidin-7(6H)-yl)prop-2-en-1-one] |
| < 1000 | < 1000 | 1000 to 10000 | C=CC(=O)N1CCc2c(nc(Cc3ccccc3)nc2-c2ccn(Cc3cccnc3)n2)C1 [Cpd. No. 35, 1-(2-benzyl-4-(1-(pyridin-3-ylmethyl)-1H-pyrazol-3-yl)-5,8-dihydropyrido[3,4-d]pyrimidin-7(6H)-yl)prop-2-en-1-one] |
| < 1000 | < 1000 | > 10000 | C=CC(=O)N1CCc2c(nc(-c3ccc(F)cc3)nc2-c2ccn(C)n2)C1 [Cpd. No. 51, 1-(2-(4-fluorophenyl)-4-(1-methyl-1H-pyrazol-3-yl)-5,8-dihydropyrido[3,4-d]pyrimidin-7(6H)-yl)prop-2-en-1-one] |
| 1000 to 3000 | > 10000 | > 10000 | CCC(=O)N1CCc2c(nc(C3CCC(F)(F)CC3)nc2-c2ccn(C)n2)C1 [Cpd. No. 90, 1-(2-(4,4-difluorocyclohexyl)-4-(1-methyl-1H-pyrazol-3-yl)-5,8-dihydropyrido[3,4-d]pyrimidin-7(6H)-yl)propan-1-one] |
| < 1000 | < 1000 | > 10000 | C=CC(=O)N1CCc2c(nc(Cc3ccc(C(F)(F)F)cc3)nc2-c2ccn(Cc3cccnc3)n2)C1 [Cpd. No. 49, 1-(4-(1-(pyridin-3-ylmethyl)-1H-pyrazol-3-yl)-2-(4-(trifluoromethyl)benzyl)-5,8-dihydropyrido[3,4-d]pyrimidin-7(6H)-yl)prop-2-en-1-one] |
| < 1000 | 1000 to 10000 | 1000 to 10000 | C=CC(=O)N1CCc2c(nc(-c3ccc(C(F)(F)F)cc3)nc2-c2cn(C)nn2)C1 [Cpd. No. 87, 1-(4-(1-methyl-1H-1,2,3-triazol-4-yl)-2-(4-(trifluoromethyl)phenyl)-5,8-dihydropyrido[3,4-d]pyrimidin-7(6H)-yl)prop-2-en-1-one] |
| < 1000 | < 1000 | 1000 to 10000 | C=CC(=O)N1CCc2c(nc(-c3cccc(F)c3)nc2-c2ccn(C)n2)C1 [Cpd. No. 52, 1-(2-(3-fluorophenyl)-4-(1-methyl-1H-pyrazol-3-yl)-5,8-dihydropyrido[3,4-d]pyrimidin-7(6H)-yl)prop-2-en-1-one] |
| < 1000 | < 1000 | 1000 to 10000 | C=CC(=O)N1CCc2c(nc(-c3ccc(C(F)(F)F)cc3)nc2-c2ccn(CCOC)n2)C1 [Cpd. No. 73, 1-(4-(1-(2-methoxyethyl)-1H-pyrazol-3-yl)-2-(4-(trifluoromethyl)phenyl)-5,8-dihydropyrido[3,4-d]pyrimidin-7(6H)-yl)prop-2-en-1-one] |
| < 1000 | < 1000 | > 10000 | C=C(C)C(=O)N1CCc2c(nc(-c3ccc(C(F)(F)F)cc3)nc2-c2ccn(C)n2)C1 [Cpd. No. 77, 2-methyl-1-(4-(1-methyl-1H-pyrazol-3-yl)-2-(4-(trifluoromethyl)phenyl)-5,8-dihydropyrido[3,4-d]pyrimidin-7(6H)-yl)prop-2-en-1-one] |
| < 1000 | 1000 to 10000 | 1000 to 10000 | C=CC(=O)N1CCc2c(nc(-c3ccccc3)nc2-c2ccn(C(F)F)n2)C1 [Cpd. No. 65, 1-(4-(1-(difluoromethyl)-1H-pyrazol-3-yl)-2-phenyl-5,8-dihydropyrido[3,4-d]pyrimidin-7(6H)-yl)prop-2-en-1-one] |
| < 1000 | < 1000 | 1000 to 10000 | C/C=C/C(=O)N1CCc2c(nc(-c3ccc(C(F)(F)F)cc3)nc2-c2ccn(C)n2)C1 [Cpd. No. 74, (E)-1-(4-(1-methyl-1H-pyrazol-3-yl)-2-(4-(trifluoromethyl)phenyl)-5,8-dihydropyrido[3,4-d]pyrimidin-7(6H)-yl)but-2-en-1-one] |
| < 1000 | < 1000 | 1000 to 10000 | C=CC(=O)N1CCc2c(nc(-c3ccc(F)c(F)c3)nc2-c2ccn(C)n2)C1 [Cpd. No. 53, 1-(2-(3,4-difluorophenyl)-4-(1-methyl-1H-pyrazol-3-yl)-5,8-dihydropyrido[3,4-d]pyrimidin-7(6H)-yl)prop-2-en-1-one] |
| < 1000 | < 1000 | < 1000 | C=CC(=O)N1CCc2c(nc(Cc3ccccc3)nc2-c2ccn(C)n2)C1 [Cpd. No. 32, 1-(2-benzyl-4-(1-methyl-1H-pyrazol-3-yl)-5,8-dihydropyrido[3,4-d]pyrimidin-7(6H)-yl)prop-2-en-1-one] |
| < 1000 | < 1000 | 1000 to 10000 | C=CC(=O)N1CCc2c(nc(Cc3cccc(C(F)(F)F)c3)nc2-c2ccn(C)n2)C1 [Cpd. No. 46, 1-(4-(1-methyl-1H-pyrazol-3-yl)-2-(3-(trifluoromethyl)benzyl)-5,8-dihydropyrido[3,4-d]pyrimidin-7(6H)-yl)prop-2-en-1-one] |
